The values below come from ChEMBL document CHEMBL5096183, “Contemporary advances of cyclic molecules proposed for inflammation” (Eur J Med Chem, 2021).

The term IC50 denotes the point on the concentration scale where inhibition reaches its midpoint. The term inhibition in vivo denotes the relative decrease from the control value, in per cent. One may read the inhibition as the share of the control response that was lost under treatment.

Molecules are shown by their SMILES.

Series [1] relates to Rattus norvegicus. As to the kind of experiment: Antiulcer activity against ulceration induced albino Wistar rat assessed as ulcerogenic index pretreated daily at 25 mg/kg for 4 days followed by 24 hrs fasting prior to pylorus ligation measured after 4 hrs. The format is functional. As to conditions: time 124 hrs.
Series [2] is described as follows: Inhibition of soy 15-LOX enzyme immunoassay. More on the design: species or system Glycine max.
The subject of series [3] is Mus musculus. Description: Analgesic activity in albino […] mouse assessed as increase in reaction on paw licking at 100 mg/kg, po pretreated for 1 hrs followed by hot plate treatment measured after 90 mins by analgesiometer based analysis relative to control. The format is functional. As to conditions: time 2.5 hrs.
The test system of series [4] is Rattus norvegicus. Description: Anti-inflammatory activity against carrageenan-induced hind paw edema in rat at 20 mg/kg, PO measured after 5 hrs relative to control. Format: functional.
The test system of series [5] is Rattus norvegicus. As to the kind of experiment: Anti-inflammatory activity against carrageenan-induced paw edema in Wistar rat at 20 mg/kg, po assessed as paw edema volume measured after 4 hrs by plethysmometric analysis relative to control. Format: functional. For orientation: Carrageenan injected into the paw causes an acute inflammation.
The subject of series [6] is RAW264.7. Description: Anti-inflammatory activity against LPS induced mouse RAW264.7 cells assessed as suppression of TNFalpha cytokine level at 20 uM incubated for 24 hrs by ELISA assay relative to control. The format is functional.
In series [7] the test system is Rattus norvegicus. Description: Anti-inflammatory activity against formalin-induced foot paw edema in Wistar rat assessed as oedema inhibition at 10 mg/kg,po measured after 1 hrs by plethysmometric analysis relative to control. The format is functional.
Series [8] has as its system Rattus norvegicus. As to the kind of experiment: Anti-inflammatory activity against formalin-induced foot paw edema in Wistar rat assessed as oedema inhibition at 10 mg/kg,po measured after 3 hrs by plethysmometric analysis relative to control. The format is functional.
Series [9] relates to Rattus norvegicus. As to the kind of experiment: Anti-inflammatory activity against carrageenan induced paw edema in rat assessed as inhibition of paw edema at 12.5 mg/kg,PO pretreated for 1 hrs followed by carrageenan addition for 4 hrs by plethysmographic analysis relative to control. As to conditions: time 5 hrs. The format is functional.
Series [10] has as its system Rattus norvegicus. Description: Anti-inflammatory activity against formalin-induced foot paw edema in Wistar rat assessed as oedema inhibition at 10 mg/kg,po measured after 6 hrs by plethysmometric analysis relative to control. The format is functional.
Series [11] deals with Rattus norvegicus. As to the kind of experiment: Anti-inflammatory activity against carrageenan-induced paw edema in rat relative to control. Format: functional.
A further series is filed under the species Homo sapiens. Description: Inhibition of proteinase (unknown origin) at 100 ug/ml using casein as substrate preincubated for 5 mins followed by addition of substrate for 20 mins relative to control. As to conditions: dose 100.0 µg/ml.
In the next series the test system is Erythrocyte. Description: Anti-inflammatory against heat induced human red blood cells assessed as inhibition of heat induced hemolysis by measuring membrane stabilization for at 100 ug/ml incubated for 30 mins relative to control. Format: functional. As to conditions: 0.5 h.
Series [12] has as its system Rattus norvegicus. As to the kind of experiment: Anti-inflammatory activity against Cotton pellets induced granuloma in Albino rat at 20 mg/kg, po administered for 7 days measured on day 8 by measuring pellet weight relative to control. Format: functional. As to conditions: time 8 day.
Series [13] deals with Rattus norvegicus. As to the kind of experiment: Acute anti-inflammatory activity against carrageenan induced paw edema in Albino rat at 20 mg/kg, po pretreated for 30 mins followed by carrageenan addition measured every hour for 3 hrs by plethysmography method relative to control. As to conditions: time 3.5 hrs. Format: functional.
The test system of series [14] is Rattus norvegicus. Description: Anti-inflammatory activity against carrageenan-induced paw edema in Wistar albino rat model assessed as inhibition of paw edema at 20 mg/kg, PO relative to control. Format: functional.
In series [15] the test system is Rattus norvegicus. As to the kind of experiment: Anti-inflammatory activity against carrageenan-induced paw edema in Sprague-Dawley rat at 30 mg/kg, IP pretreated for 30 mins followed by carrageenan addition measured after 4 hrs relative to control. The format is functional. As to conditions: time 4.5 hrs.
Series [16] concerns Rattus norvegicus. As to the kind of experiment: Acute ulcerogenic activity in 18 hrs fasted Wistar rat at 60 mg/kg, po treated for 6 hrs relative to control. The format is functional.
The subject of series [17] is RAW264.7. Description: Anti-inflammatory against LPS induced mouse RAW 264.7 cells assessed as inhibition of NO measured for 24 hrs by ELISA analysis. The format is functional, cell-based. As to conditions: RAW264.7, 24 h. Background: An ELISA detects its analyte on a solid surface through an enzyme-linked reagent.
Series [18] relates to RAW264.7. Description: Anti-inflammatory against LPS induced mouse RAW 264.7 cells assessed as inhibition of IL-1beta measured for 24 hrs by ELISA analysis. The format is functional, cell-based. As to conditions: RAW264.7, 24 h.
Series [19] relates to RAW264.7. As to the kind of experiment: Anti-inflammatory against LPS induced mouse RAW 264.7 cells assessed as inhibition of IL-6 measured for 24 hrs by ELISA analysis. The format is functional, cell-based. As to conditions: RAW264.7, 24 h.
Series [20] relates to Rattus norvegicus. As to the kind of experiment: Anti-inflammatory activity against carrageenan-induced paw oedema in 12 hrs fasted Albino rat assessed as inhibition of oedema formation administered intraperitoneally measured after 3 hrs relative to control. The format is functional. As to conditions: route ip.
Series [21] is described as follows: Ulcerogenic activity in 12 hrs fasted Albino rat assessed as ulcerogenic index at […] per day, po for 3 days. Format: toxicity, organism-based. As to conditions: in vivo, 72 h, time 3 day.
Series [22] has as its system Mus musculus. As to the kind of experiment: Anti-inflammatory activity against Carrageenan-induced paw edema in Swiss albino mouse assessed as change in paw volume at 10 mg/kg, PO measured after 6 hrs by plethysmometric analysis relative to control. Format: functional.

On to `Nc1cc(-c2ccccc2)nn1C(=O)c1csc(-c2ccccc2)n1`, for which the Activity in the series on Rattus norvegicus [1] is given as 0.44.
Take `Cc1ccc(Cl)c(Nc2ccccc2C(=O)O)c1Cl` [MECLOFENAMATE SODIUM]: it took 5.64 µM to reach half-maximal inhibition in [2] (IC50).
On to `COc1ccc2c(c1)c(CC(=O)O)c(C)n2C(=O)c1ccc(Cl)cc1` [INDOMETHACIN], for which the Activity in the series with Mus musculus [3] amounted to 85.84%; in the series with RAW264.7 [6], 68.84%. The inhibition in vivo at 20 mg/kg amounted to 81% in the series with Rattus norvegicus [4] and 81.9% with Rattus norvegicus [5].
On to `O=C(CCc1nnc(-c2ccc(O)cc2)o1)N/N=C1\C(=O)Nc2ccccc21`, for which the Activity in the series on Mus musculus [3] was found to be 84.11%.
For `O=C(O)Cc1ccccc1Nc1c(Cl)cccc1Cl` [DICLOFENAC], the inhibition in vivo at 10 mg/kg with Rattus norvegicus [7] came out at 41.7%; in the series on Rattus norvegicus [8] it was 40.7%; in the series on Rattus norvegicus [10] it was 41.7%. Further, the inhibition in vivo at 12.5 mg/kg with Rattus norvegicus [9] worked out at 94%. The Activity in the series on Rattus norvegicus [11] came to 85.6%.
In the case of `Clc1cc(Cl)c2cccc(-c3nc4ccccc4o3)c2n1`, the inhibition in the series filed under Homo sapiens came out at 85.3%. In addition, in the series on Erythrocyte, the inhibition at 100 µg/mL was 80.2%.
`COc1ccccc1OC(=O)c1cc(OC)c(OC)c(OC)c1`: in the series on Rattus norvegicus [5], the inhibition in vivo at 20 mg/kg was found to be 77.1%.
As for `O=C1/C(=C\c2ccc(F)cc2)C=C(c2ccc(F)cc2)N1Cc1ccc(F)cc1`, the inhibition in vivo at 20 mg/kg in the series with Rattus norvegicus [4] was 76.2%. Besides, the Activity with RAW264.7 [6] stood at 65.03%.
Consider `O=C(CCN1CCN(c2cccc(Cl)c2Cl)CC1)Nc1ccc2oc(Cc3ccc(Cl)cc3)nc2c1`, for which the figures for the Activity in the series with Rattus norvegicus [12] and in the series on Rattus norvegicus [13] were 39.3% and 77.6%, respectively.
`COc1cc(Cc2nc3cc(NC(=O)c4ccc(Cl)cc4)ccc3o2)cc(OC)c1OC`: the inhibition in vivo at 20 mg/kg with Rattus norvegicus [14] turned out to be 79.5%.
Take `C/C(=N/Nc1ccc(C(=O)O)cc1)c1cccc(N2C(=O)c3ccccc3C2=O)c1`: the inhibition in vivo at 10 mg/kg in the series on Rattus norvegicus [7] came to 29.2%; in the series on Rattus norvegicus [8], 22.2%; in the series on Rattus norvegicus [10] it was 29.2%.
Turning to `CCOC(=O)CSc1nnc(Cc2ccccc2)n1C1CCCCC1`, in the series with Rattus norvegicus [15], the inhibition in vivo at 30 mg/kg was found to be 62.5%.
With `O=C([O-])Cc1ccccc1Nc1c(Cl)cccc1Cl.[Na+]` [DICLOFENAC SODIUM], the Activity with Rattus norvegicus [12] is recorded as 60.2%; in the series with Rattus norvegicus [16], 64.7%; with Rattus norvegicus [1] it was 4.67.
In the series listed under Homo sapiens, `C(=N\c1ccccc1-c1nc2ccccc2o1)/c1cccs1` came in with an inhibition of 75.2%. In addition, in the series with Erythrocyte, the inhibition at 100 µg/mL was found to be 70.2%.
Turning to `CN(C)c1cccc2c(S(=O)(=O)Oc3cccc4oc(=O)[nH]c34)cccc12`, the concentration for half-maximal inhibition (IC50) worked out at 17.7 µM in the series on RAW264.7 [17], 20.1 µM with RAW264.7 [18] and 8.61 µM with RAW264.7 [19].
On to `S=c1oc(-c2csc(-c3ccccc3)n2)nn1CN1CCCCC1`, for which, in the series on Rattus norvegicus [1], the Activity came to 0.44.
In the case of `Cc1ccc(S(=O)(=O)N2CC(O)CC2C(=O)Nc2nc3ccccc3s2)cc1` (stereo unspecified), the “inhibition (INH)” value in the series on Rattus norvegicus [20] stood at 78%. Further, the Activity_index in series [21] worked out at 0.89.
Turning to `COc1ccc(C2CC(c3ccc(F)cc3O)=NN2)cc1` (stereo unspecified), the Activity with Mus musculus [22] amounted to 54%.
